Bridge positions count the residues as written; N and C are the ends. Square brackets hold non-standard residues; d marks the D form. Peptide text beside a SMILES is read from it. * marks the point of attachment. ξ: configuration not given here. Phe(4-COOH) = N[C@@H](Cc1ccc(C(=O)O)cc1)C(=O)O; Bip = N[C@@H](Cc1ccc(-c2ccccc2)cc1)C(=O)O; Phe(3-Me) = Cc1cccc(C[C@H](N)C(=O)O)c1; Ala(4-THP) = N[C@@H](CC1CCOCC1)C(=O)O; Val(3-OH) = CC(C)(O)[C@H](N)C(=O)O; 3Pal = N[C@@H](Cc1cccnc1)C(=O)O; 4Pal = N[C@@H](Cc1ccncc1)C(=O)O; Cha = N[C@@H](CC1CCCCC1)C(=O)O; aThr = C[C@H](O)[C@H](N)C(=O)O; Thr(3ξ) = CC(O)[C@H](N)C(=O)O; dNle = CCCC[C@@H](N)C(=O)O; Carboxymethyl = O=C(O)C*; Orn = NCCC[C@H](N)C(=O)O; Aun = NCCCCCCCCCCC(=O)O; Dab = NCC[C@H](N)C(=O)O; Dap = NC[C@H](N)C(=O)O; AEEA = NCCOCCOCC(=O)O
biological target: T1, PD-1/PD-L1 interaction (PE-labeled human PD-L1-Ig binding to Jurkat cell line over-expressing human PD-1) (Homo sapiens, UniProt Q15116); test: Jurkat-PD-1 Cell Binding High-Content Screening Assay (CBA); format: cell-based; settings: Jurkat cell line over-expressing human PD-1; PE-labeled PD-L1-Ig 20 nM final; read-out: Jurkat hPD1-PDL1 IC50
T1 construct: expressed in transfected cells; host or cells: Jurkat
Outline: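 Human PD-L1-Ig carrying a covalent PE label on its Ig tag serves as the probe, applied at 20 nM final to compound-treated (2 h, 37° C) Jurkat-hPD-1 cells in medium with 10% fetal calf serum. After one hour, fixation and nuclear staining precede high-content image analysis.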

T1 sequence (Q15116 25-288): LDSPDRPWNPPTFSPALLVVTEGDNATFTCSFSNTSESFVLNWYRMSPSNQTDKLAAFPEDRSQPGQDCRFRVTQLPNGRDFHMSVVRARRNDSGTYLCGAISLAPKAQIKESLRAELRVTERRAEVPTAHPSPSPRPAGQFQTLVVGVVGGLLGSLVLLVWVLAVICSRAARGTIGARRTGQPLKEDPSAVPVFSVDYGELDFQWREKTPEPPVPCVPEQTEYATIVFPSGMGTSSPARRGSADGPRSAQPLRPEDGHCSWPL

IC50 [nM] | Structure (SMILES)
10.2 | CCCC[C@H]1NC(=O)[C@H](CCCN)NC(=O)[C@H](C(C)C)NC(=O)[C@H](Cc2ccc(-c3ccccc3)cc2)NC(=O)[C@H](C(C)C)NC(=O)[C@H](Cc2cccc(C)c2)NC(=O)[C@H](CC(=O)O)NC(=O)[C@H](Cc2ccc(OCC(=O)O)cc2)NC(=O)[C@H](CN)NC(=O)CSC[C@@H](C(=O)NCCOCCOCC(=O)N[C@@H](CCN)C(=O)NCCCCCCCCCCC(=O)O)NC(=O)[C@H](CCCN)NC(=O)[C@H](C(C)C)NC(=O)[C@H](CC2CCCCC2)NC(=O)[C@H](CCN)NC1=O [Compound 2676] ({CH2CO}-[Dap]Y(Carboxymethyl)D[Phe(3-Me)]V[Bip]V[Orn][dNle][Dab][Cha]V[Orn]C[AEEA][Dab][Aun]-OH; thioether N-14)
10.9 | CC(C)C[C@H]1NC(=O)[C@H](CCN)NC(=O)[C@H](C(C)C)NC(=O)[C@H](Cc2ccc(-c3ccccc3)cc2)NC(=O)[C@H](C(C)C)NC(=O)[C@H](Cc2c[nH]c3ccccc23)NC(=O)[C@H](CC(=O)O)NC(=O)[C@H](Cc2ccc(C(=O)O)cc2)NC(=O)[C@H](Cc2ccc(OCC(=O)O)cc2)NC(=O)CSC[C@@H](C(=O)N[C@@H](CCN)C(=O)NCCOCCOCC(=O)NCCCCCCCCCCC(=O)O)NC(=O)[C@H](CCCN)NC(=O)[C@H](C(C)C)NC(=O)[C@H](CC2CCCCC2)NC(=O)[C@H](CCN)NC1=O [Compound 3243] ({CH2CO}-Y(Carboxymethyl)[Phe(4-COOH)]DWV[Bip]V[Dab][dL][Dab][Cha]V[Orn]C[Dab][AEEA][Aun]-OH; thioether N-14)
11.9 | Cc1cccc(C[C@@H]2NC(=O)[C@H](CC(=O)O)NC(=O)[C@H](Cc3ccc(OCC(=O)O)cc3)NC(=O)[C@H](CN)NC(=O)CSC[C@@H](C(=O)N[C@@H](CCN)C(=O)NCCCCCCCCCCC(=O)O)NC(=O)[C@H](CCCN)NC(=O)[C@H](C(C)C)NC(=O)[C@H](CC3CCCCC3)NC(=O)[C@H](CCN)NC(=O)[C@@H](CC(C)C)NC(=O)[C@H](CCCN)NC(=O)[C@H](Cc3ccc(OCC(=O)O)cc3)NC(=O)[C@H](Cc3ccc(-c4ccccc4)cc3)NC(=O)[C@H](Cc3ccc(O)cc3)NC2=O)c1 [Compound 2858] ({CH2CO}-[Dap]Y(Carboxymethyl)D[Phe(3-Me)]Y[Bip]Y(Carboxymethyl)[Orn][dL][Dab][Cha]V[Orn]C[Dab][Aun]-OH; thioether N-14)
177 | Cc1cccc(C[C@@H]2NC(=O)[C@H](CC(=O)O)NC(=O)[C@H](Cc3ccc(OCC(=O)O)cc3)NC(=O)[C@H](CN)NC(=O)CSC[C@@H](C(=O)N[C@@H](CCN)C(=O)NCCCCCCCCCCC(=O)O)NC(=O)[C@@H](CCC(=O)O)NC(=O)[C@H](C(C)C)NC(=O)[C@H](CC(C)C)NC(=O)[C@H](CCN)NC(=O)[C@@H](CC(C)C)NC(=O)[C@H](CCCN)NC(=O)[C@H](Cc3ccc(O)cc3)NC(=O)[C@H](Cc3ccc(-c4ccccc4)cc3)NC(=O)[C@H](C(C)C)NC2=O)c1 [Compound 2757] ({CH2CO}-[Dap]Y(Carboxymethyl)D[Phe(3-Me)]V[Bip]Y[Orn][dL][Dab]LV[dE]C[Dab][Aun]-OH; thioether N-14)
18.2 | CC(C)C[C@H]1NC(=O)[C@H](CCCN)NC(=O)[C@H](C(C)C)NC(=O)[C@H](Cc2ccc(-c3ccccc3)cc2)NC(=O)[C@H](C(C)C)NC(=O)[C@H](Cc2c[nH]c3ccccc23)NC(=O)[C@H](CC(=O)O)NC(=O)[C@H](Cc2ccc(OCC(=O)O)cc2)NC(=O)[C@H](CN)NC(=O)CSC[C@@H](C(=O)N[C@@H](CCCN)C(=O)NCCOCCOCC(=O)NCCCCCCCCCCC(=O)O)NC(=O)[C@H](CO)NC(=O)[C@H](C(C)C)NC(=O)[C@H](CC2CCCCC2)NC(=O)[C@H](C(C)O)NC1=O (stereo partly drawn) [Compound 3192] ({CH2CO}-[Dap]Y(Carboxymethyl)DWV[Bip]V[Orn][dL][Thr(3ξ)][Cha]VSC[Orn][AEEA][Aun]-OH; thioether N-14)
19.7 | Cc1cccc(C[C@@H]2NC(=O)[C@H](CC(=O)O)NC(=O)[C@H](Cc3cccnc3)NC(=O)[C@H](CC(N)=O)NC(=O)CSC[C@@H](C(=O)N[C@@H](CCN)C(=O)NCCCCCCCCCCC(=O)O)NC(=O)[C@H]([C@@H](C)O)NC(=O)[C@H](C(C)C)NC(=O)[C@H](CC3CCCCC3)NC(=O)[C@H](CCN)NC(=O)[C@@H](CC(C)C)NC(=O)[C@H](CCCN)NC(=O)[C@H](Cc3ccc(O)cc3)NC(=O)[C@H](Cc3ccc(-c4ccccc4)cc3)NC(=O)[C@H](C(C)C)NC2=O)c1 [Compound 2740] ({CH2CO}-N[3Pal]D[Phe(3-Me)]V[Bip]Y[Orn][dL][Dab][Cha]VTC[Dab][Aun]-OH; thioether N-14)
9.5 | Cc1cccc(C[C@@H]2NC(=O)[C@H](CC(=O)O)NC(=O)[C@H](Cc3ccc(OCC(=O)O)cc3)NC(=O)[C@H](CN)NC(=O)CSC[C@@H](C(=O)NCCOCCOCC(=O)N[C@@H](CCN)C(=O)NCCCCCCCCCCC(=O)O)NC(=O)[C@H](C(C)O)NC(=O)[C@H](C(C)C)NC(=O)[C@H](CC3CCCCC3)NC(=O)[C@H](CCN)NC(=O)[C@@H](CC(C)C)NC(=O)[C@H](CCCN)NC(=O)[C@H](Cc3ccc(O)cc3)NC(=O)[C@H](Cc3ccc(-c4ccccc4)cc3)NC(=O)[C@H](C(C)C)NC2=O)c1 (stereo partly drawn) [Compound 2591] ({CH2CO}-[Dap]Y(Carboxymethyl)D[Phe(3-Me)]V[Bip]Y[Orn][dL][Dab][Cha]V[Thr(3ξ)]C[AEEA][Dab][Aun]-OH; thioether N-14)
133 | CC(C)C[C@H]1NC(=O)[C@H](CCCN)NC(=O)[C@H](Cc2ccc(O)cc2)NC(=O)[C@H](Cc2ccc(-c3ccccc3)cc2)NC(=O)[C@H](C(C)C)NC(=O)[C@H](Cc2c[nH]c3ccccc23)NC(=O)[C@H](CC(=O)O)NC(=O)[C@H](Cc2ccc(OCC(=O)O)cc2)NC(=O)[C@H](C(C)O)NC(=O)CSC[C@@H](C(=O)N[C@@H](CCN)C(=O)NCCCCCCCCCCC(=O)O)NC(=O)[C@H](CC2CCOCC2)NC(=O)[C@H](C(C)C)NC(=O)[C@H](CC2CCCCC2)NC(=O)[C@H](CCN)NC1=O (stereo partly drawn) [Compound 3424] ({CH2CO}-[Thr(3ξ)]Y(Carboxymethyl)DWV[Bip]Y[Orn][dL][Dab][Cha]V[Ala(4-THP)]C[Dab][Aun]-OH; thioether N-14)
13.5 | Cc1cccc(C[C@@H]2NC(=O)[C@H](CC(=O)O)NC(=O)[C@H](Cc3ccc(OCC(=O)O)cc3)NC(=O)[C@H](CC(N)=O)NC(=O)CSC[C@@H](C(=O)N[C@@H](CCN)C(=O)NCCCCCCCCCCC(=O)O)NC(=O)[C@H]([C@H](C)O)NC(=O)[C@H](C(C)C)NC(=O)[C@H](CC3CCCCC3)NC(=O)[C@H](CCN)NC(=O)[C@@H](CC(C)C)NC(=O)[C@H](CCCN)NC(=O)[C@H](Cc3ccc(O)cc3)NC(=O)[C@H](Cc3ccc(-c4ccccc4)cc3)NC(=O)[C@H](C(C)C)NC2=O)c1 [Compound 3377] ({CH2CO}-NY(Carboxymethyl)D[Phe(3-Me)]V[Bip]Y[Orn][dL][Dab][Cha]V[aThr]C[Dab][Aun]-OH; thioether N-14)
238 | Cc1cccc(C[C@@H]2NC(=O)[C@H](CC(=O)O)NC(=O)[C@H](Cc3ccc(C(=O)O)cc3)NC(=O)[C@H](Cc3ccncc3)NC(=O)CSC[C@@H](C(=O)N[C@@H](CCN)C(=O)NCCOCCOCC(=O)NCCOCCOCC(=O)NCCCCCCCCCCC(=O)O)NC(=O)[C@H](CCC(=O)O)NC(=O)[C@H](C(C)(C)O)NC(=O)[C@H](CC3CCCCC3)NC(=O)[C@H](CCN)NC(=O)[C@@H](CC(C)C)NC(=O)[C@H](CCCN)NC(=O)[C@H](Cc3ccc(C(=O)O)cc3)NC(=O)[C@H](Cc3ccc(-c4ccccc4)cc3)NC(=O)[C@H](Cc3ccc(C(=O)O)cc3)NC2=O)c1 [Compound 3764] ({CH2CO}-[4Pal][Phe(4-COOH)]D[Phe(3-Me)][Phe(4-COOH)][Bip][Phe(4-COOH)][Orn][dL][Dab][Cha][Val(3-OH)]EC[Dab][AEEA][AEEA][Aun]-OH; thioether N-14)
31.9 | CC(C)C[C@H]1NC(=O)[C@H](CCCN)NC(=O)[C@H](Cc2ccc(O)cc2)NC(=O)[C@H](Cc2ccc(-c3ccccc3)cc2)NC(=O)[C@H](C(C)C)NC(=O)[C@H](Cc2ccc(O)cc2)NC(=O)[C@H](CC(=O)O)NC(=O)[C@H](Cc2ccc(OCC(=O)O)cc2)NC(=O)[C@H](CN)NC(=O)CSC[C@@H](C(=O)N[C@@H](CCN)C(=O)NCCOCCOCC(=O)NCCCCCCCCCCC(=O)O)NC(=O)[C@H](CCCN)NC(=O)[C@H](C(C)C)NC(=O)[C@H](CC2CCCCC2)NC(=O)[C@H](CCN)NC1=O [Compound 1302] ({CH2CO}-[Dap]Y(Carboxymethyl)DYV[Bip]Y[Orn][dL][Dab][Cha]V[Orn]C[Dab][AEEA][Aun]-OH; thioether N-14)
27.7 | CC(C)C[C@H]1NC(=O)[C@H](CCCN)NC(=O)[C@H](C(C)C)NC(=O)[C@H](Cc2ccc(-c3ccccc3)cc2)NC(=O)[C@H](C(C)C)NC(=O)[C@H](Cc2c[nH]c3ccccc23)NC(=O)[C@H](CC(=O)O)NC(=O)[C@H](Cc2ccc(OCC(=O)O)cc2)NC(=O)[C@H](CN)NC(=O)CSC[C@@H](C(=O)N[C@@H](CCN)C(=O)NCCCCCCCCCCC(=O)O)NC(=O)[C@H](CN)NC(=O)[C@H](C(C)O)NC(=O)[C@H](CC2CCCCC2)NC(=O)[C@H](CCN)NC1=O (stereo partly drawn) [Compound 3647] ({CH2CO}-[Dap]Y(Carboxymethyl)DWV[Bip]V[Orn][dL][Dab][Cha][Thr(3ξ)][Dap]C[Dab][Aun]-OH; thioether N-14)
54.1 | CC(C)C[C@H]1NC(=O)[C@H](CCCN)NC(=O)[C@H](C(C)C)NC(=O)[C@H](Cc2ccc(-c3ccccc3)cc2)NC(=O)[C@H](C(C)C)NC(=O)[C@H](Cc2c[nH]c3ccccc23)NC(=O)[C@H](CC(=O)O)NC(=O)[C@H](Cc2ccc(OCC(=O)O)cc2)NC(=O)[C@H](CN)NC(=O)CSC[C@@H](C(=O)N[C@@H](CCCN)C(=O)NCCCCCCCCCCC(=O)O)NC(=O)[C@H](CCC(=O)O)NC(=O)[C@H](C(C)C)NC(=O)[C@H](CC2CCCCC2)NC(=O)[C@H](Cc2c[nH]cn2)NC1=O [Compound 2776] ({CH2CO}-[Dap]Y(Carboxymethyl)DWV[Bip]V[Orn][dL]H[Cha]VEC[Orn][Aun]-OH; thioether N-14)

From patent US20260022142A1, “MACROCYCLIC IMMUNOMODULATORS” (Bristol-Myers Squibb Company, priority 2022, published 2026)
